Patent US20210395313A1, “PEPTIDE PAC1 ANTAGONISTS” (AMGEN INC., priority 2017, published 2021)
pIC50: −log10 of the molar value. Where a SMILES comes first, the peptide text is derived from it. Bridges are numbered along the chain shown (N, C = ends). Where no end group is shown, it is not given here.

Tests used:
human PAC1 receptor = target: T1, human PAC1 receptor (Homo sapiens, UniProt P41586); test: LANCE Ultra cAMP accumulation antagonist assay in SHSY-5Y cells; type: cell-based;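 further: inhibition of cAMP accumulation evoked by PAC1 agonist at its EC80 in SHSY-5Y cells endogenously expressing receptor, 30 min preincubation then 15 min agonist, TR-FRET readout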
T1 construct: SHSY-5Y (human neuroblastoma cell line) and RG-2 (rat glioma cell line) cells endogenously express human and rat PAC1 receptors, respectively; endogenous in cells; host or cells: SHSY-5Y human neuroblastoma cells
T1 sequence (P41586 21-468): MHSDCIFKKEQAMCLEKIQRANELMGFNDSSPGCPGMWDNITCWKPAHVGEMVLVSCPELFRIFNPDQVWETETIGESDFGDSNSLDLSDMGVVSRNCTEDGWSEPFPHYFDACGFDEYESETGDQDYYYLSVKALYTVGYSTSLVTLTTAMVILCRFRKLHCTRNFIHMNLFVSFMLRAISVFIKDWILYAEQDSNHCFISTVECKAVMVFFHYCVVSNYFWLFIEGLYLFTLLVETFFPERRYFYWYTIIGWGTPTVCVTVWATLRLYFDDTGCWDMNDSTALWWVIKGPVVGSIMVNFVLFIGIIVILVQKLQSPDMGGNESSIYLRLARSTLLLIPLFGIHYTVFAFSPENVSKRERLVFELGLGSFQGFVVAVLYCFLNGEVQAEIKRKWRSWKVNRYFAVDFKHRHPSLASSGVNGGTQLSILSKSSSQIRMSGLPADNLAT

rat PAC1 receptor = target: T2, rat PAC1 receptor (Rattus norvegicus, UniProt P32215); test: LANCE Ultra cAMP accumulation antagonist assay in RG-2 cells; type: cell-based;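 further: RG-2 rat glioma cells endogenously expressing PAC1, test peptide preincubated 30 min, then PAC1 agonist added at its EC80 for 15 min, cAMP accumulation read by LANCE Ultra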
T2 construct: SHSY-5Y (human neuroblastoma cell line) and RG-2 (rat glioma cell line) cells endogenously express human and rat PAC1 receptors, respectively; endogenous in cells; host or cells: RG-2 rat glioma cells
T2 sequence (P32215 20-523): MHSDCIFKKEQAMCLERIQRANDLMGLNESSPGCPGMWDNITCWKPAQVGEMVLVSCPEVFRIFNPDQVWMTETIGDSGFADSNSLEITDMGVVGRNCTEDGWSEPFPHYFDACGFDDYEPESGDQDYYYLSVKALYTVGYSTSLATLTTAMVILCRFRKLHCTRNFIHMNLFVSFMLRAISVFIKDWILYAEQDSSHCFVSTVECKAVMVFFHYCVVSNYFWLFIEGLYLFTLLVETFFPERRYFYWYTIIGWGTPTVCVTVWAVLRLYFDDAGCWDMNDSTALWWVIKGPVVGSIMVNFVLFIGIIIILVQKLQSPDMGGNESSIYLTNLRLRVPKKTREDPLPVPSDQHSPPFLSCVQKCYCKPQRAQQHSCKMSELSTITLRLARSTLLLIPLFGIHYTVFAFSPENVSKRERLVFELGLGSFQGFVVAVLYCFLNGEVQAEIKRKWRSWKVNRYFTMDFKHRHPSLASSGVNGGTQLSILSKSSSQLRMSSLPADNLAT

| Compound | pIC50 (human PAC1 receptor) | pIC50 (rat PAC1 receptor) |
| --- | --- | --- |
| CDATCQFRKAIDDCQKQAHHSNVPNSVFKECMKQKKKEFKAGK (disulfide 1-5, 14-31) [compound 365] | 7.00 to 9.00 |  |
| CDATCQFRKAIDDCQKQAHHSNVPGSVFKACMKQKKKEFKAW (disulfide 1-5, 14-31) [compound 95] | 7.00 to 9.00 | 7.00 to 9.00 |
| CDATCQFRKAIDDCFTWAWHSNVPGSVFKACMKQKKKEFKAG-NH2 (disulfide 1-5, 14-31) [compound 74] | 9.00 to 11.00 | 9.00 to 11.00 |
| CDATCQFRKAIDDCFYQAWHSNVPGSVWKACMKFRFNVWKAG-NH2 (disulfide 1-5, 14-31) [compound 55] | 7.00 to 9.00 | 9.00 to 11.00 |
| CDATCQFRKAIDDCQKQAHHSNVPGSVFKACMKQKKKEFKAR (disulfide 1-5, 14-31) [compound 68] | 9.00 to 11.00 | 9.00 to 11.00 |
| CDATCQFRKAIDDCYYRSRHSNVPGSVFKACMKQKKKEFKAG-NH2 (disulfide 1-5, 14-31) [compound 44] | 9.00 to 11.00 | > 11.00 |
| CDATCQFRKAIDDCWIVAWHSNVPGSVFKACMKQKKKEFKAG-NH2 (disulfide 1-5, 14-31) [compound 73] | 9.00 to 11.00 | 9.00 to 11.00 |
| CDATCQFRKAIDDCKQQAHHSNVPGNSVFEKCMKQKKKEFKAGK (disulfide 1-5, 14-32) [compound 346] | < 7.00 |  |
| CC[C@H](C)[C@H](NC(=O)[C@H](C)NC(=O)[C@H](CCCCN)NC(=O)[C@H](CCCNC(=N)N)NC(=O)[C@H](Cc1ccccc1)NC(=O)[C@H](CCC(N)=O)NC(=O)[C@@H]1CSSC[C@H](N)C(=O)N[C@@H](CC(=O)O)C(=O)N[C@@H](C)C(=O)N[C@@H]([C@@H](C)O)C(=O)N1)C(=O)N[C@@H](CC(=O)O)C(=O)N[C@@H](CC(=O)O)C(=O)N[C@H]1CSSC[C@@H](C(=O)N[C@@H](CCSC)C(=O)N[C@@H](CCCCN)C(=O)N[C@@H](CCC(N)=O)C(=O)N[C@@H](CCCCN)C(=O)N[C@@H](CCCCN)C(=O)N[C@@H](CCCCN)C(=O)N[C@@H](CCC(=O)O)C(=O)N[C@@H](Cc2c[nH]c3ccccc23)C(=O)N[C@@H](CCCCN)C(=O)N[C@@H](C)C(=O)NCC(N)=O)NC(=O)[C@H](C)NC(=O)[C@H](CCCCN)NC(=O)[C@H](Cc2ccccc2)NC(=O)[C@H](C(C)C)NC(=O)[C@H](CO)NC(=O)[C@H](CO)NC(=O)[C@H](Cc2c[nH]cn2)NC(=O)[C@H](Cc2c[nH]cn2)NC(=O)[C@H](C)NC(=O)[C@H](CCC(N)=O)NC(=O)[C@H](CCCNC(=N)N)NC(=O)[C@H](CC(=O)O)NC1=O [compound 16] (H-CDATCQFRKAIDDCDRQAHHSSVFKACMKQKKKEWKAG-NH2; disulfide 1-5, 14-27) | 9.00 to 11.00 | 9.00 to 11.00 |
| CDATCQFRKAIDDCQKQAHHSNVPGSVFKECMKQKKKEFKAGK (disulfide 1-5, 14-31) [compound 364] | 7.00 to 9.00 |  |
| CC[C@H](C)[C@H](NC(=O)[C@H](C)NC(=O)[C@H](CCCCN)NC(=O)[C@H](CCCNC(=N)N)NC(=O)[C@H](Cc1ccccc1)NC(=O)[C@H](CCC(N)=O)NC(=O)[C@@H]1CSSC[C@H](N)C(=O)N[C@@H](CC(=O)O)C(=O)N[C@@H](C)C(=O)N[C@@H]([C@@H](C)O)C(=O)N1)C(=O)N[C@@H](CC(=O)O)C(=O)N[C@@H](CC(=O)O)C(=O)N[C@H]1CSSC[C@@H](C(=O)N[C@@H](CCSC)C(=O)N[C@@H](CCCCN)C(=O)N[C@@H](CCC(N)=O)C(=O)N[C@@H](CCCCN)C(N)=O)NC(=O)[C@H](CCC(=O)O)NC(=O)[C@H](CCCCN)NC(=O)[C@H](Cc2ccccc2)NC(=O)[C@H](C(C)C)NC(=O)[C@H](CO)NC(=O)[C@H](CC(N)=O)NC(=O)CNC(=O)[C@@H]2CCCN2C(=O)[C@H](C(C)C)NC(=O)[C@H](CC(N)=O)NC(=O)[C@H](CO)NC(=O)[C@H](Cc2c[nH]cn2)NC(=O)[C@H](Cc2c[nH]cn2)NC(=O)[C@H](C)NC(=O)[C@H](CCC(N)=O)NC(=O)[C@H](CCCCN)NC(=O)[C@H](CCC(N)=O)NC1=O [compound 413] | 7.00 to 9.00 |  |
| CDATCQFRKAIDDCQKQAHHSNVSVFKECMKQKKKEFKAGK (disulfide 1-5, 14-29) [compound 397] | 7.00 to 9.00 |  |
| CC[C@H](C)[C@H](NC(=O)[C@H](C)NC(=O)[C@H](CCCCN)NC(=O)[C@H](CCCNC(=N)N)NC(=O)[C@H](Cc1ccccc1)NC(=O)[C@H](CCC(N)=O)NC(=O)[C@@H]1CSSC[C@H](N)C(=O)N[C@@H](CC(=O)O)C(=O)N[C@@H](C)C(=O)N[C@@H]([C@@H](C)O)C(=O)N1)C(=O)N[C@@H](CC(=O)O)C(=O)N[C@@H](CC(=O)O)C(=O)N[C@H]1CSSC[C@@H](C(=O)N[C@@H](CCSC)C(=O)N[C@@H](CCCCN)C(=O)N[C@@H](CCC(N)=O)C(=O)N[C@@H](CCCCN)C(=O)N[C@@H](CCCCN)C(=O)N[C@@H](CCCCN)C(=O)N[C@@H](CCC(=O)O)C(=O)N[C@@H](Cc2ccccc2)C(=O)N[C@@H](CCCCN)C(=O)N[C@@H](C)C(=O)NCC(=O)N[C@@H](CCCCN)C(=O)O)NC(=O)[C@H](CCC(=O)O)NC(=O)[C@H](CCCCN)NC(=O)[C@H](Cc2ccccc2)NC(=O)[C@H](C(C)C)NC(=O)[C@H](CO)NC(=O)[C@H](CC(N)=O)NC(=O)[C@H](CO)NC(=O)[C@H](Cc2c[nH]cn2)NC(=O)[C@H](Cc2c[nH]cn2)NC(=O)[C@H](C)NC(=O)[C@H](CCC(N)=O)NC(=O)[C@H](CCCCN)NC(=O)[C@H](CCC(N)=O)NC1=O [compound 396] (H-CDATCQFRKAIDDCQKQAHHSNSVFKECMKQKKKEFKAGK-OH; disulfide 1-5, 14-28) | 7.00 to 9.00 |  |
| CDATCQFRKAIDDCQKQAHHSNVPGNSVKECMKQKKKEFKAGK (disulfide 1-5, 14-31) [compound 362] | < 7.00 |  |
| CDATCQFRKAIDDCQKQAHHSNVGNSVFKECMKQKKKEFKAGK (disulfide 1-5, 14-31) [compound 398] | 7.00 to 9.00 |  |
| CDATCQFRKAIDDCQKQAHHSNVPGNSFKECMKQKKKEFKAGK (disulfide 1-5, 14-31) [compound 363] | 7.00 to 9.00 |  |
| CC[C@H](C)[C@H](NC(=O)[C@H](C)NC(=O)[C@H](CCCCN)NC(=O)[C@H](CCCNC(=N)N)NC(=O)[C@H](Cc1ccccc1)NC(=O)[C@H](CCC(N)=O)NC(=O)[C@@H]1CSSC[C@H](N)C(=O)N[C@@H](CC(=O)O)C(=O)N[C@@H](C)C(=O)N[C@@H]([C@@H](C)O)C(=O)N1)C(=O)N[C@@H](CC(=O)O)C(=O)N[C@@H](CC(=O)O)C(=O)N[C@H]1CSSC[C@@H](C(=O)N[C@@H](CCSC)C(=O)N[C@@H](CCCCN)C(=O)N[C@@H](CCC(N)=O)C(=O)N[C@@H](CCCCN)C(=O)N[C@@H](CCCCN)C(=O)N[C@@H](CCCCN)C(=O)N[C@@H](CCC(=O)O)C(=O)N[C@@H](Cc2c[nH]c3ccccc23)C(=O)N[C@@H](CCCCN)C(=O)N[C@@H](C)C(=O)NCC(=O)N[C@@H](Cc2c[nH]cn2)C(=O)O)NC(=O)[C@H](C)NC(=O)[C@H](CCCCN)NC(=O)[C@H](Cc2ccccc2)NC(=O)[C@H](CO)NC(=O)[C@H](Cc2c[nH]cn2)NC(=O)[C@H](Cc2ccc(O)cc2)NC(=O)[C@H](C)NC(=O)[C@H](CCC(N)=O)NC(=O)[C@H](CCCNC(=N)N)NC(=O)[C@H](C)NC1=O [compound 439] (H-CDATCQFRKAIDDCARQAYHSFKACMKQKKKEWKAGH-OH; disulfide 1-5, 14-25) |  | 9.00 to 11.00 |
